Assay results from patent US20240342156A1, “METHODS FOR TREATING PAIN” (Xenon Pharmaceuticals Inc., priority 2019, published 2024).

Experiments:
[1] = test system: rat spinal nerve ligation (SNL)/Chung model of neuropathic pain; experiment: Spinal nerve ligation (SNL)/Chung model, tactile allodynia, electronic von Frey test on lesioned paw; type: in vivo
Description: (§1) Objective: The efficacy of Compound A was assessed using the rat spinal nerve ligation (SNL)/Chung model of neuropathic pain. The SNL model in rats was developed as described previously (Chung J M, Kim H K, Chung K. “Segmental spinal nerve ligation model of neuropathic pain.” Methods Mol. Med. 99 (2004) 35-45).
Study Design. Briefly, on Day 0, von Frey and cold plate tests were used for baseline measurements of tactile and cold allodynia respectively. Post-baseline measurements, rats (171-209 g male Sprague Dawley) were anesthetized and an incision at the L4-S2 level was performed to expose the left L5 nerve. A ligature was tied tightly around the L5 nerve (Chung et al.; R. Dost et al., “The anti-hyperalgesic activity of Retigabine is mediated by KCNQ potassium channel activation.” Naunyn-Schmiedeberg's Arch. Pharmacol. 369 (2004) 382-390; Gordon Blackburn-Munro et al., “The anticonvulsant retigabine attenuates nociceptive behaviors in rat models of persistent and neuropathic pain.” Eur. J Pharmacol. 460 (2003) 109-116; and Wu Y J et al., “Discovery of (S,E)-3-(2-fluorophenyl)-N-(1-(3-(pyridin-3-yloxy)phenyl)ethyl)-acrylamide as a potent and efficacious KCNQ2 (Kv7.2) opener for the treatment of neuropathic pain.” Bioorg Med. Chem. Lett. 23 (2013) 6188-91). The wound was then sutured and the rats were allowed to recover. On Day 13, post-surgery baselines for tactile and cold allodynia were measured to verify neuropathic pain. Animals were assigned to treatment groups based on the post-surgery baseline score.
(§2) Dosing: For efficacy testing, Compound A was dosed orally once a day for 5 consecutive days from Day 14-18.
Rats were placed under an inverted acrylic plastic box on a grid floor. The tip of an electronic von Frey probe was then applied with increasing force to the surgery hind paw and the force required to induce paw-withdrawal was automatically recorded. The procedure was carried out 3 times and the mean paw withdrawal force was calculated. The experimenter was double blinded to treatment.

[2] = test system: rat spinal nerve ligation (SNL)/Chung model of neuropathic pain; experiment: Spinal nerve ligation (SNL)/Chung model, thermal allodynia, cold plate test on lesioned paw; type: in vivo
Description: as §1
Study Design. Briefly, on Day 0, von Frey and cold plate tests were used for baseline measurements of tactile and cold allodynia respectively. Post-baseline measurements, rats (171-209 g male Sprague Dawley) were anesthetized and an incision at the L4-S2 level was performed to expose the left L5 nerve. […] The wound was then sutured and the rats were allowed to recover. On Day 13, post-surgery baselines for tactile and cold allodynia were measured to verify neuropathic pain. Animals were assigned to treatment groups based on the post-surgery baseline score.
as §2
The cold plate apparatus was maintained at 4±1° C. and was surrounded by an acrylic glass enclosure. Rats were placed on the plate for a period of 5 minutes. The latency to 1st paw-withdrawal, total number of paw withdrawals, and total duration of withdrawal responses were recorded for the surgery hind paw.

[3] = Day 18 at 2 h, 8 mg/kg p.o. once daily Day 14-18
[4] = Day 18 at 2 h, 16 mg/kg p.o. once daily Day 14-18
[5] = Day 18 at 2 h, 24 mg/kg p.o. once daily Day 14-18

## Cc1cc(N2CCc3cc(F)ccc3C2)cc(C)c1NC(=O)CC(C)(C)C [Compound A, N-[4-(6-fluoro-3,4-dihydro-TH-isoquinolin-2-yl)-2,6-dimethylphenyl]-3,3-dimethylbutanamide]
[1]; Day 14 and Day 18, compared to morphine
  effect on the tactile allodynia endpoint: neither Compound A nor retigabine had much effect
[1]; Day 14 at 2 h, 8 mg/kg p.o.
  Force inducing paw-withdrawal (g), Delta from baseline compared with Vehicle (p.o.), Δ: +6.7 g
  Force inducing paw-withdrawal (g), Delta from baseline, Mean ± s.e.m.: +7.0 ± 2.5 g
  Force inducing paw-withdrawal (g), Mean ± s.e.m.: 28.5 ± 3.4 g
[1]; Day 14 at 2 h, 16 mg/kg p.o.
  Force inducing paw-withdrawal (g), Delta from baseline compared with Vehicle (p.o.), Δ: +5.1 g
  Force inducing paw-withdrawal (g), Delta from baseline, Mean ± s.e.m.: +5.4 ± 2.1 g
  Force inducing paw-withdrawal (g), Mean ± s.e.m.: 25.2 ± 1.9 g
[1]; Day 14 at 2 h, 24 mg/kg p.o.
  Force inducing paw-withdrawal (g), Delta from baseline compared with Vehicle (p.o.), Δ: +7.2 g
  Force inducing paw-withdrawal (g), Delta from baseline, Mean ± s.e.m.: +7.5 ± 3.1 g
  Force inducing paw-withdrawal (g), Mean ± s.e.m.: 29.9 ± 2.9 g
[1]; [3]
  Force inducing paw-withdrawal (g), Delta from baseline compared with Vehicle (p.o.), Δ: +7.8 g
  Force inducing paw-withdrawal (g), Delta from baseline, Mean ± s.e.m.: +10.6 ± 3.5 g
  Force inducing paw-withdrawal (g), Mean ± s.e.m.: 32.1 ± 3.6 g
[1]; [4]
  Force inducing paw-withdrawal (g), Delta from baseline compared with Vehicle (p.o.), Δ: +2.6 g
  Force inducing paw-withdrawal (g), Delta from baseline, Mean ± s.e.m.: +5.4 ± 2.1 g
  Force inducing paw-withdrawal (g), Mean ± s.e.m.: 25.2 ± 2.0 g
[1]; [5]
  Force inducing paw-withdrawal (g), Delta from baseline compared with Vehicle (p.o.), Δ: +8.7 g
  Force inducing paw-withdrawal (g), Delta from baseline, Mean ± s.e.m.: +11.5 ± 3.0 g
  Force inducing paw-withdrawal (g), Mean ± s.e.m.: 33.8 ± 3.6 g
[2]; Day 14 at 2 h, 8 mg/kg p.o.
  Latency to first paw-withdrawal (s), Mean ± s.e.m.: 226.8 ± 29.4 s
  Latency to first paw-withdrawal, compared with Vehicle (p.o.), Δ%: +74%
  Number of withdrawal responses, Mean ± s.e.m.: 2.1 ± 0.8
  Number of withdrawal responses, compared with Vehicle (p.o.), Δ%: −79%
  Total duration of withdrawal responses (s), Mean ± s.e.m.: 3.4 ± 3.4 s
  Total duration of withdrawal responses, compared with Vehicle (p.o.), Δ%: +55%
[2]; Day 14 at 2 h, 16 mg/kg p.o.
  Latency to first paw-withdrawal (s), Mean ± s.e.m.: 214.9 ± 29.2 s
  Latency to first paw-withdrawal, compared with Vehicle (p.o.), Δ%: +65%
  Number of withdrawal responses, Mean ± s.e.m.: 3.0 ± 1.7
  Number of withdrawal responses, compared with Vehicle (p.o.), Δ%: −70%
  Total duration of withdrawal responses (s), Mean ± s.e.m.: 0.8 ± 0.7 s
  Total duration of withdrawal responses, compared with Vehicle (p.o.), Δ%: −64%
[2]; Day 14 at 2 h, 24 mg/kg p.o.
  Latency to first paw-withdrawal (s), Mean ± s.e.m.: 280.0 ± 20.0 s
  Latency to first paw-withdrawal, compared with Vehicle (p.o.), Δ%: +115%
  Number of withdrawal responses, Mean ± s.e.m.: 0.9 ± 0.9
  Number of withdrawal responses, compared with Vehicle (p.o.), Δ%: −91%
  Total duration of withdrawal responses (s), Mean ± s.e.m.: 0.0 ± 0.0 s
  Total duration of withdrawal responses, compared with Vehicle (p.o.), Δ%: −100%
[2]; Day 18 (FIGS. 7-9), at both 16 and 24 mg/kg
  thermal allodynia endpoint, comparison with morphine (128 mg/kg): outperformed morphine
[2]; [3]
  Latency to first paw-withdrawal (s), Mean ± s.e.m.: 180.4 ± 26.5 s
  Latency to first paw-withdrawal, compared with Vehicle (p.o.), Δ%: +92%
  Number of withdrawal responses, Mean ± s.e.m.: 7.7 ± 2.8
  Number of withdrawal responses, compared with Vehicle (p.o.), Δ%: −29%
  Total duration of withdrawal responses (s), Mean ± s.e.m.: 1.3 ± 0.9 s
  Total duration of withdrawal responses, compared with Vehicle (p.o.), Δ%: −88%
[2]; [4]
  Latency to first paw-withdrawal (s), Mean ± s.e.m.: 257.0 ± 23.5 s
  Latency to first paw-withdrawal, compared with Vehicle (p.o.), Δ%: +173%
  Number of withdrawal responses, Mean ± s.e.m.: 1.3 ± 2.8
  Number of withdrawal responses, compared with Vehicle (p.o.), Δ%: −88%
  Total duration of withdrawal responses (s), Mean ± s.e.m.: 0.0 ± 0.0 s
  Total duration of withdrawal responses, compared with Vehicle (p.o.), Δ%: −100%
[2]; [5]
  Latency to first paw-withdrawal (s), Mean ± s.e.m.: 263.8 ± 24.3 s
  Latency to first paw-withdrawal, compared with Vehicle (p.o.), Δ%: +180%
  Number of withdrawal responses, Mean ± s.e.m.: 0.6 ± 0.5
  Number of withdrawal responses, compared with Vehicle (p.o.), Δ%: −94%
  Total duration of withdrawal responses (s), Mean ± s.e.m.: 0.0 ± 0.0 s
  Total duration of withdrawal responses, compared with Vehicle (p.o.), Δ%: −100%
